Laboratory results as given in ChEMBL document CHEMBL4251552, “Synthesis of piperazine sulfonamide analogs as diabetic-II inhibitors and their molecular docking study” (Eur J Med Chem, 2017).

target: T1, Pancreatic alpha-amylase (Sus scrofa, UniProt P00690); assay: Inhibition of porcine pancreatic alpha-amylase using starch as substrate preincubated for 10 mins followed by substrate addition measured after 10 mins by dinitrosalicylic acid color reagent based assay
T1 sequence (P00690 whole entry): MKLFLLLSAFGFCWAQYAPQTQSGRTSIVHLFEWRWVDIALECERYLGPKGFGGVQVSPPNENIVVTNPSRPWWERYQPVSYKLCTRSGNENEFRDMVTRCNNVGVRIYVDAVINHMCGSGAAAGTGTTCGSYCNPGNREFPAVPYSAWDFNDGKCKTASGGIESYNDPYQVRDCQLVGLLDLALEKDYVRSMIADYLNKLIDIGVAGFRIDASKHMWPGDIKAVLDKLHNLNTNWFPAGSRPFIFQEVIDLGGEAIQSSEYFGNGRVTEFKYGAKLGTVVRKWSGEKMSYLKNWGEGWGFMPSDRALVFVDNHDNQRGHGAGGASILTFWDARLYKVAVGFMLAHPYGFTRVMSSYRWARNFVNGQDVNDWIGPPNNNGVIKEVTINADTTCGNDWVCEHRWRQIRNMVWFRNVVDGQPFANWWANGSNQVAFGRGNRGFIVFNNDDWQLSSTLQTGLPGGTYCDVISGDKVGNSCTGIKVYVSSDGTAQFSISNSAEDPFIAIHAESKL

Compound | IC50
COc1ccc(S(=O)(=O)N2CCN(Cc3ccc(C)cc3)CC2)cc1 | 2060 nM
Cc1ccc(CN2CCN(S(=O)(=O)c3ccc(F)cc3)CC2)cc1 | 1570 nM
Cc1ccc(CN2CCN(S(=O)(=O)c3ccc(Br)cc3)CC2)cc1 | 2120 nM
Cc1ccc(CN2CCN(S(=O)(=O)c3cccc(Br)c3)CC2)cc1 | 3450 nM
Cc1ccc(CN2CCN(S(=O)(=O)c3ccccc3C)CC2)cc1 | 2880 nM
Cc1ccc(CN2CCN(S(=O)(=O)c3ccccc3[N+](=O)[O-])CC2)cc1 | 3980 nM
Cc1ccc(CN2CCN(S(=O)(=O)c3cccc(Cl)c3Cl)CC2)cc1 | 2670 nM
Cc1ccc(CN2CCN(S(=O)(=O)c3ccccc3F)CC2)cc1 | 3050 nM

Continued by falling IC50, values first:

IC50 | Compound
3560 nM | Cc1ccc(CN2CCN(S(=O)(=O)c3cc(Cl)cc(Cl)c3)CC2)cc1
3520 nM | Cc1ccc(CN2CCN(S(=O)(=O)c3cc(Cl)c(Cl)cc3Cl)CC2)cc1
3200 nM | Cc1ccc(CN2CCN(S(=O)(=O)c3ccccc3Cl)CC2)cc1
3140 nM | Cc1ccc(CN2CCN(S(=O)(=O)c3ccc(Cl)cc3Cl)CC2)cc1
2980 nM | Cc1ccc(CN2CCN(S(=O)(=O)c3ccc(Cl)c(Cl)c3)CC2)cc1
2930 nM | Cc1ccc(CN2CCN(S(=O)(=O)c3ccc([N+](=O)[O-])cc3[N+](=O)[O-])CC2)cc1
2880 nM | Cc1ccc(CN2CCN(S(=O)(=O)c3cc(Cl)ccc3Cl)CC2)cc1
2870 nM | Cc1ccc(CN2CCN(S(=O)(=O)c3ccc(C)cc3)CC2)cc1
2820 nM | Cc1ccc(CN2CCN(S(=O)(=O)c3ccc([N+](=O)[O-])cc3)CC2)cc1
2750 nM | Cc1ccc(CN2CCN(S(=O)(=O)c3cccc([N+](=O)[O-])c3)CC2)cc1
2350 nM | Cc1ccc(CN2CCN(S(=O)(=O)c3ccc(Cl)cc3)CC2)cc1
